The values that follow come from patent US20230391765A1, “HETEROBIFUNCTIONAL COMPOUNDS AS DEGRADERS OF ENL” (ICAHN SCHOOL OF MEDICINE AT MOUNT SINAI, priority 2020, published 2023).

In series [1] the test system is ENL-dependent MOLM13 leukemia cells. The series is described as follows: Cell viability (CellTiter-Glo), MOLM13 cells. The class given is cell-based. The conditions noted are these: MOLM13 cells, 0.5, 1, 2 and 4 μM for 72 h. For orientation: In ATP-based viability assays light output follows the ATP content of the culture.
Series [2] can be described thus: In vivo pharmacokinetics (PK) study, plasma concentration. On the set-up: species or system C57BL/6 mice. Conditions: mice, single 50 mg/kg IP injection. The protocol:
Three C57BL/6 mice at 6-8 weeks of age were used in PK study for each time point. After a single dose intraperitoneal (IP) injection of ENL degrader LQ076-122 (50 mg/kg), plasma concentrations of degrader were measured at 6 time points (0.5, 1, 2, 4, 8 and 12 h) from each test animal. The concentrations of LQ076-122 in plasma were maintained above 2 μM for 6 h with the maximum plasma concentration of about 6 μM.
The standard mouse PK study was conducted by Charles River Laboratories. Three C57BL/6 mice at 6-8 weeks of age were used for each time point. After a single dose intraperitoneal (IP) injection of ENL degrader (50 mg/kg), plasma concentrations of degrader were measured at […] (in hours: 0.5, 1, 2, 4, 8 and 12 h) from each test animal.

The test system of series [3] is ENL-dependent MV4; 11 cells. Put plainly: Cell viability (CellTiter-Glo), MV4; 11 cells. The conditions noted are these: 11 cells, 0.5, 1, 2 and 4 μM for 72 h. The class given is cell-based. In a few lines: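 MV4;11 cells (ENL-dependent) were seeded at 2×10^5 cells/mL and exposed to compound or DMSO, mostly for 72 h, with some runs at 3 or 6 days. Concentrations ranged from 10 nM to 10 μM depending on the run. Viability was read by CellTiter-Glo luminescence and normalized to DMSO.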

A further series concerns MV4; 11 cells. The series is described as follows: Apoptosis assay (FITC Annexin V), MV4; 11 cells. It is filed as cell-based. The conditions noted are these: 11 cells, 1, 2 and 4 μM for 24 h. The protocol:
(§1) Apoptotic cells were measured by the FITC Annexin V Apoptosis Detection Kit (BD Biosciences).
(§2) MV4; 11 or MOLM13 cells were seeded at 0.2×10^6 cells/mL density. Cells were treated with DMSO or ENL degraders at indicated concentrations. Each treatment was done in triplicates. After 24 h treatment, cells were collected and washed with ice-cold PBS once and resuspended in 250 μL of 1× binding buffer containing 5 μL of FITC-Annexin V and PI (BD Biosciences). After 15 min incubation at room temperature in the dark, 250 μL of 1× binding buffer was added and flow cytometry analysis was performed.

The subject of another series is ENL target genes. The series is described as follows: RT-qPCR of ENL target genes in MV4; 11 cells. It is filed as cell-based. The conditions noted are these: 11 cells, 1, 2 and 4 μM for 6, 12, 18 and 24 h. The protocol:
MV4; 11 cells were treated with DMSO, or LQ076-122 at 1, 2, and 4 μM for 6, 12, 18 and 24 h. RT-qPCR analysis was performed to detect the mRNA levels of selected ENL target genes.
Total RNA was extracted using the RNeasy Plus kit (Qiagen) and reverse-transcribed using the iScript cDNA Synthesis kit (Bio-Rad). RT-qPCR was performed using the Power SYBR Green PCR Master Mix (Applied Biosystems) on the CFX96 Real-Time PCR system (Bio-Rad). Gene expressions were calculated following normalization to 18s rRNA amounts using the comparative cycle threshold (Ct) method.
(Real-time PCR tracks product formation cycle by cycle.)

A further series concerns MOLM13 cells. Put plainly: Apoptosis assay (FITC Annexin V), MOLM13 cells. It is filed as cell-based. The conditions noted are these: MOLM13 cells, 1, 2 and 4 μM for 24 h. The protocol: as §1, §2
In another series the target is T1, GAS41 (Homo sapiens, UniProt O95619).
T1 construct: host or cells: MV4;11
The series is described as follows: Western blot of GAS41 protein level in MV4; 11 cells. The class given is cell-based. Conditions: 11 cells, 0.3, 1, 3, 10 and 30 μM for 24 h. The protocol:
MV4; 11 cells were treated with LQ076-122, or LQ081-107 at 0.3, 1, 3, 10, and 30 μM for 24 h. DMSO treated cells were used as control. Cells were lysed and expression of ENL and GAS41 was assessed by Western analysis.
After ENL degrader treatment, cells were collected, lysed, and total cell lysates were used for Western blot. The following primary antibodies were used: ENL (Cell Signaling Technology), GAS41 (Santa Cruz), GAPDH (Santa Cruz), β-actin (Sigma). Blots were detected using HRP-conjugated secondary antibodies.
(In general: A western blot detects proteins with antibodies after separation by electrophoresis.)

T1 sequence (O95619 whole entry): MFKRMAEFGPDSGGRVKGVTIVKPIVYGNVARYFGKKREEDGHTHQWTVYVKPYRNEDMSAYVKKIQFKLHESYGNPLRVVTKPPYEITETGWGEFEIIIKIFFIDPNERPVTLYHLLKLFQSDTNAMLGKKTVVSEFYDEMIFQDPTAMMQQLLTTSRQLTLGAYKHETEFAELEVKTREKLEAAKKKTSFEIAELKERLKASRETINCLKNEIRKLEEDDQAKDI

With `Cc1ncsc1-c1ccc(CNC(=O)[C@@H]2C[C@@H](O)CN2C(=O)[C@@H](NC(=O)CCCCCCCCCCNC(=O)c2ccc(C(=O)Nc3ccc4[nH]c(CN5CCC[C@@H]5C)nc4c3)cc2)C(C)(C)C)cc1` [LQ076-122, N^1-(11-(((S)-1-((2S,4R)-4-hydroxy-2-((4-(4-methylthiazol-5-yl)benzyl)carbamoyl)pyrrolidin-1-yl)-3,3-dimethyl-1-oxobutan-2-yl)amino)-11-oxoundecyl)-N^4-(2-(((S)-2-methylpyrrolidin-1-yl)methyl)-1H-benzo[d]imidazol-5-yl)terephthalamide], the “suppression of cell growth (relative cell viability)” value in series [1] and in series [3] was “selectively suppressed cell growth” throughout. Besides, in series [2], the “concentration in plasma maintained for 6 h” value is “above 2 μM”. In addition, the maximum plasma concentration entry in series [2] was “about 6 μM”. Besides, the induction of apoptosis result in the series on MV4; 11 cells and in the series with MOLM13 cells was “induced apoptosis” each time. Moreover, in the series on ENL target genes, the “ENL target gene expression (mRNA levels)” value is “reduced ENL target gene expression in a concentration- and time-dependent manner”. Further, the “reduction of GAS41 protein level” value at GAS41 is listed as “but not the level of another YEATS domain-containing protein GAS41”.
